Measured values from patent US9617267B2, “Compounds and methods for kinase modulation, and indications therefor” (Plexxikon Inc., priority 2009, dated 2017).
Like-named read-outs stand apart in the source and are kept apart here.

Tests used:
B-Raf [1] = target: B-Raf (Homo sapiens (Human), UniProt P15056); experiment: B-Raf kinase activity biochemical assay (AlphaScreen, biotin-MEK1 phosphorylation); conditions: B-Raf
In short: (§1)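 Biotin-MEK1 phosphorylation measured after 45 min kinase reaction at RT with 100 μM ATP final; compounds tested at 8 points from 0.1 mM DMSO stock.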

B-Raf [2] = experiment: as above; conditions: for Biochemical activity ratio B/V600E: ratio of IC50 B-Raf / B-Raf V600E; for Biochemical activity ratio B/C: ratio of IC50 B-Raf / c-Raf-1
In short: as §1

CYP3A4(BFC) = CYP3A4(BFC) (Homo sapiens (Human), UniProt P08684); experiment: CYP enzyme inhibition, fluorescent substrate BFC
In short: (§2)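 IC50 values come from plotting product fluorescence against compound concentration; inhibition lowers formation of the fluorescent metabolite. Ten-point twofold dilutions in co-factor mix were held 10 minutes at 37 °C before the enzyme reaction, also run at 37 °C.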

CYP2D6 = CYP2D6 (Homo sapiens (Human), UniProt P10635); experiment: CYP enzyme inhibition, fluorescent substrate (AMMC); assay type: in vitro ADME; conditions: read-out: Cyp IC50 2D6
In short: (§3)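 Ten-point 1:1 compound dilutions in NADPH-regenerating cofactor mix, pre-incubated 10 min at 37 °C before enzyme/substrate addition: CYP1A2 0.5 pmol with 5 μM CEC, 15 min, 409 ex/460 em; CYP2D6 1.5 pmol with 1.5 μM AMMC, 30 min, 409 ex/530 em. IC50 from fluorescent product vs concentration.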

[3] = Relative solubility by turbidity threshold concentration in aqueous buffers (pH 1.5, 4.5, 6.8, 7.4); assay type: physicochemical; conditions: for turbidity threshold (L, M, H) 1.4: pH 1.4 [sic] (method: SGF pH 1.5); for turbidity threshold (L, M, H) 4.5: pH 4.5 (SIF); for turbidity threshold (L, M, H) 6.8: pH 6.8 (SIF); for turbidity threshold (L, M, H) 7.4: pH 7.4 (HEPES)
In short: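 Solubility class (high >250 μM, moderate 31.3–250 μM, low <31.3 μM) comes from the concentration where absorbance reaches a 0.01 threshold, averaged across 490/535/650 nm. Samples were compound dilutions from DMSO stock, 1 μL into 99 μL buffer at pH 1.5, 4.5, 6.8 or 7.4.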

CYP1A2 = CYP1A2 (Homo sapiens (Human), UniProt P05177); experiment: CYP enzyme inhibition, fluorescent substrate (CEC)
In short: as §3

c-Raf-1 = c-Raf-1 (Homo sapiens, UniProt P04049); experiment: c-Raf-1 kinase activity biochemical assay (AlphaScreen, biotin-MEK1 phosphorylation)
In short: as §1

B-Raf V600E = B-Raf V600E (Homo sapiens (Human), UniProt P15056, V600E); experiment: B-Raf V600E kinase activity biochemical assay (AlphaScreen, biotin-MEK1 phosphorylation); conditions: for IC50: B-Raf V600E; for Biochemical activity ratio V600E/C: ratio of IC50 B-Raf V600E / c-Raf-1
In short: as §1

CYP2C9 = CYP2C9 (Homo sapiens (Human), UniProt P11712); experiment: CYP enzyme inhibition, fluorescent substrate (MFC)
In short: as §2

CYP3A4(BQ) = CYP3A4(BQ) (Homo sapiens (Human), UniProt P08684); experiment: CYP enzyme inhibition, fluorescent substrate BQ
In short: as §2

CYP2C19 = CYP2C19 (Homo sapiens (Human), UniProt P33261); experiment: CYP enzyme inhibition, fluorescent substrate (CEC)
In short: as §2

[4] = read-out: Cyp IC50 3A4(BFC), CYP3A4, substrate BFC
[5] = read-out: Cyp IC50 2C9, CYP2C9, substrate MFC
[6] = read-out: Cyp IC50 3A4(BQ), CYP3A4, substrate BQ
[7] = read-out: Cyp IC50 2C19, CYP2C19, substrate CEC

Chain of CYP1A2 (P05177 whole entry): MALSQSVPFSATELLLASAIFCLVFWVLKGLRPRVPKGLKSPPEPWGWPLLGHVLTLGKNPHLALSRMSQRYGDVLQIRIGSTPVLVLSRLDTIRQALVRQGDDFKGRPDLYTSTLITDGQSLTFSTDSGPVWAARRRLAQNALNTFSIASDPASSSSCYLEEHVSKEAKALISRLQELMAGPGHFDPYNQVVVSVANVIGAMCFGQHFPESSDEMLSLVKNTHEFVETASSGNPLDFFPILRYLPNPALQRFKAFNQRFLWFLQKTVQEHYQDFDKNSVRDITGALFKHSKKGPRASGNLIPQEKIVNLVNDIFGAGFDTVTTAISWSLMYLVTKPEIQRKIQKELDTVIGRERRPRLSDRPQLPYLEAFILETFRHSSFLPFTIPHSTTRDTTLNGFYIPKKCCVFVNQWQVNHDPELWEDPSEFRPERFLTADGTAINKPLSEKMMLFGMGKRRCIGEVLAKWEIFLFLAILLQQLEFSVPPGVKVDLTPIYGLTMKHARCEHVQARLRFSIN
Chain of CYP3A4(BQ) (P08684 whole entry): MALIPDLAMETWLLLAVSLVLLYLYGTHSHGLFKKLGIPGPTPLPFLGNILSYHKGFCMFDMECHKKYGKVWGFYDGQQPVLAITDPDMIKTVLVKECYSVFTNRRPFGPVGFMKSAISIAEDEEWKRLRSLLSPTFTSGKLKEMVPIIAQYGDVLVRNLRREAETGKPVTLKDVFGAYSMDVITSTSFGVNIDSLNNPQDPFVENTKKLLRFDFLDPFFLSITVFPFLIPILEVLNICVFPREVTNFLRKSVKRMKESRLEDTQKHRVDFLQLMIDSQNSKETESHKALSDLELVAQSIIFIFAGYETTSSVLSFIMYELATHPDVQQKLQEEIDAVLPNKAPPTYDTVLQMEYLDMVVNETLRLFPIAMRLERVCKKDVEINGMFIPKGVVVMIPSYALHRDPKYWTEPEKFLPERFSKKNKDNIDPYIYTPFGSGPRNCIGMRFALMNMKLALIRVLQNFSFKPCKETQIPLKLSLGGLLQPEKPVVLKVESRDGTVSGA
Chain of CYP3A4(BFC) (P08684 whole entry): as above
Chain of B-Raf (Homo sapiens (Human), UniProt P15056) (P15056 whole entry): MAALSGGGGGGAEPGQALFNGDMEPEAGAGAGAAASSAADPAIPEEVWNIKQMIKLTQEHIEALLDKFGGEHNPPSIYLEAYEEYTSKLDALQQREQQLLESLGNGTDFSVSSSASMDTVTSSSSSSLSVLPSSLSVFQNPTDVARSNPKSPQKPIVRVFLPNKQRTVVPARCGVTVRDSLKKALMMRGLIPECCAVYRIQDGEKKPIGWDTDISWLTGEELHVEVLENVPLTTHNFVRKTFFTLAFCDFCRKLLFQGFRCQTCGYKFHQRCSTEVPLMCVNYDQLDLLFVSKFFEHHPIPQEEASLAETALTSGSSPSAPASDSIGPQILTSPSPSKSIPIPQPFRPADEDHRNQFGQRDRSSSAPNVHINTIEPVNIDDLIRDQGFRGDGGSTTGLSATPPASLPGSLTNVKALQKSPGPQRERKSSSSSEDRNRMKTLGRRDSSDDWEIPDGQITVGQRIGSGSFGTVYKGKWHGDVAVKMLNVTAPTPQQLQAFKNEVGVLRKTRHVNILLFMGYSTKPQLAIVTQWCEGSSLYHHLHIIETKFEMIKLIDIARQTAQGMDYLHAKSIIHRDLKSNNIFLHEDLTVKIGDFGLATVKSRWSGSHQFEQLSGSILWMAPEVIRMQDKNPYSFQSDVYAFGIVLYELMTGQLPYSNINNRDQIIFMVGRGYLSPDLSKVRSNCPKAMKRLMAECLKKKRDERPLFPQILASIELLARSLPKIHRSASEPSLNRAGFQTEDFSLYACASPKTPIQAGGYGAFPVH
Chain of CYP2C9 (P11712 whole entry): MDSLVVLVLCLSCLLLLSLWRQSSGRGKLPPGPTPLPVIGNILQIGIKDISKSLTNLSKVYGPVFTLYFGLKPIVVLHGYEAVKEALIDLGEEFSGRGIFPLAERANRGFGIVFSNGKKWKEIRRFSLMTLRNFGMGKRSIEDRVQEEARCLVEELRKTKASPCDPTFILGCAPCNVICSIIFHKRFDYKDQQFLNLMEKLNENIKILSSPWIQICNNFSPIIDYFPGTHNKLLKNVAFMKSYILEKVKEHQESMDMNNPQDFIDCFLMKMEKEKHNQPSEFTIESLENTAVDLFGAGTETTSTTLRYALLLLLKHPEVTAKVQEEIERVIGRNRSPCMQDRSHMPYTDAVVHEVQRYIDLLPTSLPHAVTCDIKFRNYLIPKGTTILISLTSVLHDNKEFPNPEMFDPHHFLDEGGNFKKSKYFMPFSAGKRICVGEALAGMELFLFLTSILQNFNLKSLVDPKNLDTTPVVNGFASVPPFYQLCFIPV
Chain of c-Raf-1 (P04049 whole entry, looked up): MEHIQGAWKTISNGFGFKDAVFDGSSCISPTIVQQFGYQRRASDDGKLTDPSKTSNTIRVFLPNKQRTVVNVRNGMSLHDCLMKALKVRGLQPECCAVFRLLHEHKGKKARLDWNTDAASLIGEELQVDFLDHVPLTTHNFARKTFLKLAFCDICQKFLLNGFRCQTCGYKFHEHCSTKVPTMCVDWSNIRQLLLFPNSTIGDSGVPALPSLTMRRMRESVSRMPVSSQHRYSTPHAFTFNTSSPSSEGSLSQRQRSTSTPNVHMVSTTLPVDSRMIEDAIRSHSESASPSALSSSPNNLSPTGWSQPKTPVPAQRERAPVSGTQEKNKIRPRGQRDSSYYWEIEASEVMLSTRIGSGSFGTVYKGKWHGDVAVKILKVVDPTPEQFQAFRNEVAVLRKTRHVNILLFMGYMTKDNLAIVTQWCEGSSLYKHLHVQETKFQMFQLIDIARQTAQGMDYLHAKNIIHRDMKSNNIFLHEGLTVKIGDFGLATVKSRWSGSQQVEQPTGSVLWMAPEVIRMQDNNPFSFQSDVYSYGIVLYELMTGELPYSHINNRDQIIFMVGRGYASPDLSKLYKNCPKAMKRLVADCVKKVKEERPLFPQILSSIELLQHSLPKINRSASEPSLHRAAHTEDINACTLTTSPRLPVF
Chain of B-Raf V600E (P15056 whole entry V600E): as the sequence (P15056 whole entry) above, with V600E counted along it
Chain of CYP2D6 (P10635 whole entry): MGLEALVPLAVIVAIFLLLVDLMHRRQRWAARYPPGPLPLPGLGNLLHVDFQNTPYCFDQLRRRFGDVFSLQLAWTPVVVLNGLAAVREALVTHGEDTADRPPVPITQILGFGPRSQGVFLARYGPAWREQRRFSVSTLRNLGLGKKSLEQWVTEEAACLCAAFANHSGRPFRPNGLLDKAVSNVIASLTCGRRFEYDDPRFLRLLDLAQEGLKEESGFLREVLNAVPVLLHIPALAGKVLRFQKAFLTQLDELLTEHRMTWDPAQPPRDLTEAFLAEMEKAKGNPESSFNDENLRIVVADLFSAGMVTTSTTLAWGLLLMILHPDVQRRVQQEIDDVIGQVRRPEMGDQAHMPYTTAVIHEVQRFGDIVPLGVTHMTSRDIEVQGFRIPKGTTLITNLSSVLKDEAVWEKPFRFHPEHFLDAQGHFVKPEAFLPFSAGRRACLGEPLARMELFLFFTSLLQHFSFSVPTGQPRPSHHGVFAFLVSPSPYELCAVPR
Chain of CYP2C19 (P33261 whole entry): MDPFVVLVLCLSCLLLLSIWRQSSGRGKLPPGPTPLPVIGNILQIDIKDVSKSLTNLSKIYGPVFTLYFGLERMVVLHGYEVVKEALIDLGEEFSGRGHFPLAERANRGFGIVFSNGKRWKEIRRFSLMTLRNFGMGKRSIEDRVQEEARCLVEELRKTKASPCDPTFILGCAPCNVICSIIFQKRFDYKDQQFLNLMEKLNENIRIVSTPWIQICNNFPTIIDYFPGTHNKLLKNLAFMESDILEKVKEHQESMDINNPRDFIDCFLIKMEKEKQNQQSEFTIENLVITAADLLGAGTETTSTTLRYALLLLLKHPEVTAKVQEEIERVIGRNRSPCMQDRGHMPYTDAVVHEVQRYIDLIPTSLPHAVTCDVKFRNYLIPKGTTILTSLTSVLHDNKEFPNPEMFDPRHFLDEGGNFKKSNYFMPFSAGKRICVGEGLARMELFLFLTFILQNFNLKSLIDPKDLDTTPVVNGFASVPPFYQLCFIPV

## Cc1ncnc2[nH]cc(C(=O)c3c(F)ccc(NS(=O)(=O)c4ccc(C(C)C)cc4)c3F)c12 [P-1009, N-[2,4-Difluoro-3-(4-methyl-7H-pyrrolo[2,3-d]pyrimidine-5-carbonyl)-phenyl]-4-isopropyl-benzenesulfonamide]
B-Raf [1]
  IC50: > 0.1 µM
B-Raf [2]
  Biochemical activity ratio B/V600E: 0.1-10
  Biochemical activity ratio B/C: >10
CYP3A4(BFC); [4]
  IC50: < 5 µM
CYP2D6
  IC50: > 10 µM
[3]
  turbidity threshold (L, M, H) 1.4: H (high solubility if the threshold concentration is >250 μm)
  turbidity threshold (L, M, H) 4.5: L (low solubility if the threshold concentration is <31.3 μM)
  turbidity threshold (L, M, H) 6.8: L (low solubility if the threshold concentration is <31.3 μM)
  turbidity threshold (L, M, H) 7.4: M (moderate solubility if the threshold concentration is 31.3 μM to 250 μM)
CYP1A2; human, 15 min
  IC50: > 10 µM
c-Raf-1
  IC50: < 0.1 µM
B-Raf V600E
  IC50: > 0.1 µM
  Biochemical activity ratio V600E/C: >10
CYP2C9; [5]
  IC50: < 5 µM
CYP3A4(BQ); [6]
  IC50: > 10 µM
CYP2C19
  IC50: 5 to 10 µM

## CCc1ccc(S(=O)(=O)Nc2ccc(F)c(C(=O)c3c[nH]c4ncnc(OC)c34)c2F)cc1 [P-1008, N-[2,4-Difluoro-3-(4-methoxy-7H-pyrrolo[2,3-d]pyrimidine-5-carbonyl)-phenyl]-4-ethyl-benzenesulfonamide]
B-Raf [1]
  IC50: > 0.1 µM
B-Raf [2]
  Biochemical activity ratio B/V600E: 0.1-10
  Biochemical activity ratio B/C: 0.1-10
CYP3A4(BFC); [4]
  IC50: > 10 µM
CYP2D6
  IC50: > 10 µM
[3]
  turbidity threshold (L, M, H) 1.4: M (moderate solubility if the threshold concentration is 31.3 μM to 250 μM)
  turbidity threshold (L, M, H) 4.5: M (moderate solubility if the threshold concentration is 31.3 μM to 250 μM)
  turbidity threshold (L, M, H) 6.8: L (low solubility if the threshold concentration is <31.3 μM)
  turbidity threshold (L, M, H) 7.4: M (moderate solubility if the threshold concentration is 31.3 μM to 250 μM)
CYP1A2; human, 15 min
  IC50: > 10 µM
c-Raf-1
  IC50: > 0.1 µM
B-Raf V600E
  IC50: > 0.1 µM
  Biochemical activity ratio V600E/C: 0.1-10
CYP2C9
  IC50: 5 to 10 µM
CYP3A4(BQ); [6]
  IC50: > 10 µM
CYP2C19; [7]
  IC50: > 10 µM

## CCCS(=O)(=O)Nc1ccc(F)c(C(=O)c2c[nH]c3ncc(C#N)c(OC)c23)c1F [P-2005, Propane-1-sulfonic acid [3-(5-cyano-4-methoxy-1H-pyrrolo[2,3-b]pyridine-3-carbonyl)-2,4-difluoro-phenyl]-amide]
B-Raf [1]
  IC50: < 0.1 µM
B-Raf [2]
  Biochemical activity ratio B/V600E: 0.1-10
  Biochemical activity ratio B/C: 0.1-10
CYP3A4(BFC)
  IC50: > 10 µM
CYP2D6
  IC50: > 10 µM
[3]
  turbidity threshold (L, M, H) 1.4: M (moderate solubility if the threshold concentration is 31.3 μM to 250 μM)
  turbidity threshold (L, M, H) 4.5: L (low solubility if the threshold concentration is <31.3 μM)
  turbidity threshold (L, M, H) 6.8: L (low solubility if the threshold concentration is <31.3 μM)
  turbidity threshold (L, M, H) 7.4: M (moderate solubility if the threshold concentration is 31.3 μM to 250 μM)
CYP1A2
  IC50: > 10 µM
c-Raf-1
  IC50: < 0.1 µM
B-Raf V600E
  IC50: < 0.1 µM
  Biochemical activity ratio V600E/C: 0.1-10
CYP2C9
  IC50: < 5 µM
CYP3A4(BQ)
  IC50: > 10 µM
CYP2C19
  IC50: > 10 µM

## O=C(c1c(F)ccc(NS(=O)(=O)c2ccc(C(F)(F)F)cc2)c1F)c1c[nH]c2ncnc(NC3CCOCC3)c12 [P-1013, N-{2,4-Difluoro-3-[4-(tetrahydro-pyran-4-ylamino)-7H-pyrrolo[2,3-d]pyrimidine-5-carbonyl]-phenyl}-4-trifluoromethyl-benzenesulfonamide]
B-Raf [1]
  IC50: < 0.1 µM
B-Raf [2]
  Biochemical activity ratio B/V600E: 0.1-10
  Biochemical activity ratio B/C: >10
CYP3A4(BFC); [4]
  IC50: > 10 µM
CYP2D6
  IC50: > 10 µM
[3]
  turbidity threshold (L, M, H) 1.4: L (low solubility if the threshold concentration is <31.3 μM)
  turbidity threshold (L, M, H) 4.5: L (low solubility if the threshold concentration is <31.3 μM)
  turbidity threshold (L, M, H) 6.8: L (low solubility if the threshold concentration is <31.3 μM)
  turbidity threshold (L, M, H) 7.4: M (moderate solubility if the threshold concentration is 31.3 μM to 250 μM)
CYP1A2; read-out: Cyp IC50 1A2, CYP1A2, substrate CEC
  IC50: > 10 µM
c-Raf-1
  IC50: < 0.1 µM
B-Raf V600E
  IC50: > 0.1 µM
  Biochemical activity ratio V600E/C: >10
CYP2C9; [5]
  IC50: > 10 µM
CYP3A4(BQ); [6]
  IC50: > 10 µM
CYP2C19; [7]
  IC50: > 10 µM
